Assay results reported in US12194051B2, “5-azaindazole derivatives as adenosine receptor antagonists” (MERCK PATENT GMBH, priority 2018, dated 2025).

How the values were obtained:
human A2A receptors = biological target: T1, human A2A receptors (Homo sapiens, UniProt P29274); assay: Inhibition of human A2A receptor in recombinant HEK293 cells, cAMP quantification (HTRF); assay type: cell-based; details: read-out: A2A (Category)
T1 construct: expressed in transfected cells; host or cells: HEK293
T1 sequence (P29274 whole entry): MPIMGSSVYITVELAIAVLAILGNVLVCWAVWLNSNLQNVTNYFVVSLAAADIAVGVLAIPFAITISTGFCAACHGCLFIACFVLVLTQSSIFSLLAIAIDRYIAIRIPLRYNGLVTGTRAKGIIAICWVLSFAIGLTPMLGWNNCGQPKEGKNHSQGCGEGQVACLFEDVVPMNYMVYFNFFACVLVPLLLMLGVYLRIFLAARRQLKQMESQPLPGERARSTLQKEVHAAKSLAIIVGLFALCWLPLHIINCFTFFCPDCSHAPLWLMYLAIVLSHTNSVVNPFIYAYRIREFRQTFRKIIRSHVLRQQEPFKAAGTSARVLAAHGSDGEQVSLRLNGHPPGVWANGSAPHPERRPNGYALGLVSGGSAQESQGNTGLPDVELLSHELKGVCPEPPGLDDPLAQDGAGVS
Protocol: (§1) The functional activities of human A2A and A2B receptors were determined by quantification of cAMP, being the second messenger for adenosine receptors.
(§2) After a 15 min incubation, HTRF reagents (cAMP dynamic 2, Cis Bio) were added and the cellular cAMP levels were determined using the ENVISION (Perkin Elmer) plate reader.

human A2B receptors = biological target: T2, human A2B receptors (Homo sapiens, UniProt P29275); assay: Inhibition of human A2B receptor in recombinant HEK293 cells, cAMP quantification (HTRF); assay type: cell-based; details: read-out: A2B (Category)
T2 construct: expressed in transfected cells; host or cells: HEK293
T2 sequence (P29275 1-332): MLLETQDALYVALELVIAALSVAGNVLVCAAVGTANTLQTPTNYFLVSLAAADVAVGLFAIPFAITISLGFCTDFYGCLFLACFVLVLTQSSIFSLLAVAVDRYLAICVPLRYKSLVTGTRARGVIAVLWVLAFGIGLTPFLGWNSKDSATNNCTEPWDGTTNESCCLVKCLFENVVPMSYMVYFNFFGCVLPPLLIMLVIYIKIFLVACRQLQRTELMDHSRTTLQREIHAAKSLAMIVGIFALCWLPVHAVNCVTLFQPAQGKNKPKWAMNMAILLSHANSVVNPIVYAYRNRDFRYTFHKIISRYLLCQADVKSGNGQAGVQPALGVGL
Protocol: as §1, §2

Row | SMILES | IC50 (human A2A receptors) [nM] | IC50 (human A2B receptors) [nM]
1 | O=C(c1cc2c(cn1)c(Nc1ccncn1)nn2CC(F)(F)F)N1CCCOCC1 [Compound 73, [1,4]Oxazepan-4-yl-[3-(pyrimidin-4-ylamino)-1-(2,2,2-trifluoro-ethyl)-1H-pyrazolo[4,3-c]pyridin-6-yl]-methanone] | < 100 | < 1000
2 | O=C(c1cc2c(cn1)c(Nc1ccncn1)nn2CC(F)(F)F)N1CCC(O)CC1 [Compound 76, (4-Hydroxy-piperidin-1-yl)-[3-(pyrimidin-4-ylamino)-1-(2,2,2-trifluoro-ethyl)-1H-pyrazolo[4,3-c]pyridin-6-yl]-methanone] | < 100 | < 1000
3 | CS(=O)(=O)Cn1nc(Nc2cc(Cl)ccn2)c2cnc(C(=O)N3CCCOCC3)cc21 [Compound 79, [3-(4-Chloro-pyridin-2-ylamino)-1-methanesulfonylmethyl-1H-pyrazolo[4,3-c]pyridin-6-yl]-[1,4]oxazepan-4-yl-methanone] | < 100 | < 100
4 | O=C(c1cc2c(cn1)c(Nc1ccc(F)c(F)n1)nn2CC(F)(F)F)N1CCCOCC1 [Compound 80, [3-[(5,6-difluoro-2-pyridyl)amino]-1-(2,2,2-trifluoroethyl)pyrazolo[4,3-c]pyridin-6-yl]-(1,4-oxazepan-4-yl)methanone] | < 100 | < 100
5 | COc1cc(Nc2nn(CC(F)(F)F)c3cc(C(=O)N4CCCOCC4)ncc23)ncc1F [Compound 81, [3-[(5-fluoro-4-methoxy-2-pyridyl)amino]-1-(2,2,2-trifluoroethyl)pyrazolo[4,3-c]pyridin-6-yl]-(1,4-oxazepan-4-yl)methanone] | < 100 | < 1000
6 | O=C(c1cc2c(cn1)c(Nc1nccs1)nn2CC(F)(F)F)N1CCCOCC1 [Compound 85, [1,4]Oxazepan-4-yl-[3-(thiazol-2-ylamino)-1-(2,2,2-trifluoro-ethyl)-1H-pyrazolo[4,3-c]pyridin-6-yl]methanone] | < 100 | < 100
7 | [2H]C1([2H])COCCN(C(=O)c2cc3c(cn2)c(Nc2ccc(F)cn2)nn3CC(F)(F)F)C1 [Compound 91, (6,6-dideuterio-1,4-oxazepan-4-yl)-[3-[(5-fluoro-2-pyridyl)amino]-1-(2,2,2-trifluoroethyl)pyrazolo[4,3-c]pyridin-6-yl]methanone] | < 100 | < 100
8 | O=C(c1cc2c(cn1)c(Nc1ccc(F)cn1)nn2CC(F)(F)F)N1CCOC[C@@H](F)C1 [Compound 93, [(6S)-6-fluoro-1,4-oxazepan-4-yl]-[3-[(5-fluoro-2-pyridyl)amino]-1-(2,2,2-trifluoroethyl)pyrazolo[4,3-c]pyridin-6-yl]methanone] | < 100 | < 100
9 | O=C(c1cc2c(cn1)c(Nc1ccc(F)cn1)nn2CC(F)(F)F)N1CCC(O)CC1 [Compound 94, [3-[(5-fluoro-2-pyridyl)amino]-1-(2,2,2-trifluoroethyl)pyrazolo[4,3-c]pyridin-6-yl]-(4-hydroxypiperidin-1-yl)methanone] | < 100 | < 100
10 | CC1(O)CCN(C(=O)c2cc3c(cn2)c(Nc2ccc(F)cn2)nn3CC(F)(F)F)CC1 [Compound 95, [3-(5-Fluoro-pyridin-2-ylamino)-1-(2,2,2-trifluoro-ethyl)-1H-pyrazolo[4,3-c]pyridin-6-yl]-(4-hydroxy-4-methyl-piperidin-1-yl)-methanone] | < 100 | < 1000
11 | O=C(c1cc2c(cn1)c(Nc1ccc(F)cn1)nn2CC(F)(F)F)N1CCC[C@@H](O)C1 [Compound 97, [(3R)-3-hydroxy-piperidin-1-yl]-[3-(5-Fluoro-pyridin-2-ylamino)-1-(2,2,2-trifluoro-ethyl)-1H-pyrazolo[4,3-c]pyridin-6-yl]-methanone] | < 100 | < 1000
12 | O=C(c1cc2c(cn1)c(Nc1ccc(F)cn1)nn2CC(F)(F)F)N1CCC[C@H](O)C1 [Compound 98, [(3S)-3-hydroxy-piperidin-1-yl]-[3-(5-Fluoro-pyridin-2-ylamino)-1-(2,2,2-trifluoro-ethyl)-1H-pyrazolo[4,3-c]pyridin-6-yl]methanone] | < 100 | < 1000
13 | O=C(c1cc2c(cn1)c(Nc1ccc(F)cn1)nn2CC(F)(F)F)N1CCC[C@@H](CO)C1 [Compound 101, [3-[(5-fluoro-2-pyridyl)amino]-1-(2,2,2-trifluoroethyl)pyrazolo[4,3-c]pyridin-6-yl]-[(3R)-3-(hydroxymethyl)-1-piperidyl]methanone] | < 100 | < 100
14 | O=C(c1cc2c(cn1)c(Nc1ccc(F)cn1)nn2CC(F)(F)F)N1[C@@H]2CC[C@H]1C[C@@H](O)C2 [Compound 107, [3-[(5-fluoro-2-pyridyl)amino]-1-(2,2,2-trifluoroethyl)pyrazolo[4,3-c]pyridin-6-yl]-(3-endo-hydroxy-8-azabicyclo[3.2.1]octan-8-yl)methanone] | < 100 | < 100

Second part, the molecule after the results:

Row | IC50 (human A2A receptors) [nM] | IC50 (human A2B receptors) [nM] | SMILES
15 | < 100 | < 100 | O=C(c1cc2c(cn1)c(Nc1cc(F)c(Cl)cn1)nn2CC(F)(F)F)N1CCCOCC1 [Compound 71, [3-[(5-chloro-4-fluoro-2-pyridyl)amino]-1-(2,2,2-trifluoroethyl)pyrazolo[4,3-c]pyridin-6-yl]-(1,4-oxazepan-4-yl)methanone]
16 | < 100 | < 100 | O=C(c1cc2c(cn1)c(Nc1cnccn1)nn2CC(F)(F)F)N1CCC(O)CC1 [Compound 74, (4-Hydroxy-piperidin-1-yl)-[3-(pyrazin-2-ylamino)-1-(2,2,2-trifluoro-ethyl)-1H-pyrazolo[4,3-c]pyridin-6-yl]-methanone]
17 | < 100 | < 100 | O=C(c1cc2c(cn1)c(Nc1cnc(Cl)cn1)nn2CC(F)(F)F)N1CCC(O)CC1 [Compound 75, [3-(5-Chloro-pyrazin-2-ylamino)-1-(2,2,2-trifluoro-ethyl)-1H-pyrazolo[4,3-c]pyridin-6-yl]-(4-hydroxy-piperidin-1-yl)-methanone]
18 | < 100 | < 100 | CS(=O)(=O)Cn1nc(Nc2ccc(F)cn2)c2cnc(C(=O)N3CCCOCC3)cc21 [Compound 77, [3-(5-Fluoro-pyridin-2-ylamino)-1-methanesulfonylmethyl-1H-pyrazolo[4,3-c]pyridin-6-yl]-[1,4]oxazepan-4-yl-methanone]
19 | < 100 | < 100 | CS(=O)(=O)Cn1nc(Nc2ccc(Cl)cn2)c2cnc(C(=O)N3CCCOCC3)cc21 [Compound 78, [3-(5-Chloro-pyridin-2-ylamino)-1-methanesulfonylmethyl-1H-pyrazolo[4,3-c]pyridin-6-yl]-[1,4]oxazepan-4-yl-methanone]
20 | < 100 | < 100 | COc1ccc(Nc2nn(CC(F)(F)F)c3cc(C(=O)N4CCCOCC4)ncc23)nc1 [Compound 83, [3-(5-Methoxy-pyridin-2-ylamino)-1-(2,2,2-trifluoro-ethyl)-1H-pyrazolo[4,3-c]pyridin-6-yl]-[1,4]oxazepan-4-yl-methanone]
21 | < 100 | < 100 | O=C(c1cc2c(cn1)c(Nc1cncs1)nn2CC(F)(F)F)N1CCCOCC1 [Compound 84, [1,4]Oxazepan-4-yl-[3-(thiazol-5-ylamino)-1-(2,2,2-trifluoro-ethyl)-1H-pyrazolo[4,3-c]pyridin-6-yl]methanone]
22 | < 100 | < 1000 | O=C(c1cc2c(cn1)c(Nc1cccc(=O)[nH]1)nn2CC(F)(F)F)N1CCCOCC1 [Compound 86, 6-[6-([1,4]Oxazepane-4-carbonyl)-1-(2,2,2-trifluoro-ethyl)-1H-pyrazolo[4,3-c]pyridin-3-ylamino]-1H-pyridin-2-one]
23 | < 100 | < 1000 | O=C(c1cc2c(cn1)c(Nc1ccc(F)cn1)nn2CC(F)(F)F)N1CCC(F)CC1 [Compound 96, (4-Fluoro-piperidin-1-yl)-[3-(5-fluoro-pyridin-2-ylamino)-1-(2,2,2-trifluoro-ethyl)-1H-pyrazolo[4,3-c]pyridin-6-yl]-methanone]
24 | < 100 | < 1000 | O=C(c1cc2c(cn1)c(Nc1ccc(F)cn1)nn2CC(F)(F)F)N1CCC[C@@H](F)C1 [Compound 99, [(3R)-3-fluoro-piperidin-1-yl]-[3-(5-Fluoro-pyridin-2-ylamino)-1-(2,2,2-trifluoro-ethyl)-1H-pyrazolo[4,3-c]pyridin-6-yl]methanone]
25 | < 100 | < 1000 | O=C(c1cc2c(cn1)c(Nc1ccc(F)cn1)nn2CC(F)(F)F)N1CCC[C@H](F)C1 [Compound 100, [(3S)-3-fluoro-piperidin-1-yl]-[3-(5-Fluoro-pyridin-2-ylamino)-1-(2,2,2-trifluoro-ethyl)-1H-pyrazolo[4,3-c]pyridin-6-yl]methanone]
26 | < 100 | < 100 | O=C(c1cc2c(cn1)c(Nc1ccc(F)cn1)nn2CC(F)(F)F)N1CCC[C@H](CO)C1 [Compound 102, [3-[(5-fluoro-2-pyridyl)amino]-1-(2,2,2-trifluoroethyl)pyrazolo[4,3-c]pyridin-6-yl]-[(3S)-3-(hydroxymethyl)-1-piperidyl]methanone]
27 | < 100 | < 100 | O=C(c1cc2c(cn1)c(Nc1cc(F)ccn1)nn2CC(F)(F)F)N1CCOC[C@@H](F)C1 [Compound 110, [(6S)-6-fluoro-1,4-oxazepan-4-yl]-[3-(4-fluoro-pyridin-2-ylamino)-1-(2,2,2-trifluoro-ethyl)-1H-pyrazolo[4,3-c]pyridin-6-yl]-methanone]
